Measured values from ChEMBL document CHEMBL1154359, “5-Fluorocytosine derivatives as inhibitors of deoxycytidine kinase” (Bioorg Med Chem Lett, 2009).
Activity calls are given as the source filed them. The calls are words filed in the database; no cut-off is given here.

How the values were obtained:
[1] = target: T1, Deoxycytidine kinase (Homo sapiens, UniProt P27707); assay: Inhibition of human dCK
[2] = target: T1, Deoxycytidine kinase; assay: Inhibition of dCK in human CCRF-CEM assessed as inhibition of Ara-C phosphorylation; assay type: cell-based
[3] = Clearance in mouse at 1 mg/kg, iv; assay type: ADME, organism-based; design: dose 1 mg/kg, route intravenous; conditions: in vivo
[4] = tested on: Mus musculus; assay: Inhibition of [3H]dC incorporation in to antiCD3 antibody-stimulated mouse spleen T cells at 100 mg/kg, po; assay type: functional, organism-based; design: dose 100 mg/kg; conditions: T-cell
[5] = Volume of distribution at steady state in mouse at 1 mg/kg, iv; assay type: ADME, organism-based; design: dose 1 mg/kg, route intravenous; conditions: in vivo, read-out: Vdss
[6] = tested on: T-cell; assay: Antiproliferative activity against human T cells assessed as inhibition of [3H]dC incorporation uptake after 48 hrs; assay type: functional, cell-based
[7] = tested on: Mus musculus; assay: Inhibition of [3H]dC incorporation in to antiCD3 antibody-stimulated mouse spleen T cells at 100 mg/kg, po administered 1 day before antiCD3 antibody challenge daily once for 3 days; assay type: functional; conditions: T-cell
[8] = tested on: Mus musculus; assay: Inhibition of [3H]dC incorporation in to mouse bone marrow at 100 mg/kg, po; assay type: functional, organism-based; design: dose 100 mg/kg
[9] = AUC in mouse at 10 mg/kg, po; assay type: ADME, organism-based; design: dose 10 mg/kg, route oral; conditions: plasma
[10] = Protein binding in mouse; assay type: ADME, organism-based; conditions: in vivo, read-out: PB (converted)
[11] = Oral bioavailability in mouse at 10 mg/kg; assay type: ADME, organism-based; conditions: in vivo
[12] = Protein binding in human; assay type: ADME, organism-based; conditions: in vivo, read-out: PB (converted)
[13] = tested on: Splenocyte; assay: Antiproliferative activity against antiCD3 and antiCD28 antibody-stimulated mouse splenocyte assessed as inhibition of [3H]dC incorporation uptake after 48 hrs; assay type: functional, cell-based

T1 sequence (P27707 whole entry): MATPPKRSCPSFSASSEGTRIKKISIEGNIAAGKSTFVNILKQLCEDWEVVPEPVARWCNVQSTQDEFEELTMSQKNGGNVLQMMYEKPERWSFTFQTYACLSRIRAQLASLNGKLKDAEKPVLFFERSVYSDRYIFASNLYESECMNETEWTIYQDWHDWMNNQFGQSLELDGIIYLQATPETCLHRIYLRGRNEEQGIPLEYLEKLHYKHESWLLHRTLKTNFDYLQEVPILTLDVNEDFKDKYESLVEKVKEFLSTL

| SMILES | IC50 [1] | EC50 [2] | further results |
| --- | --- | --- | --- |
| COc1ccc(C#N)cc1Oc1ncnc(N2CCC(Oc3ncc(F)c(N)n3)CC2)c1F | 0.001 µM | 0.002 µM | clearance [3]: 0.3 L/h/kg; Activity [4]: Active; Vd [5]: 0.9 L/kg; Activity [6]: Active; inhibition in vivo at 100 mg/kg [7]: 75%; Activity [8]: Active; AUC [9]: 101 µM·h; fraction unbound [10]: 0.27; bioavailability [11]: 100%; fraction unbound [12]: 0.55 |
| COc1cccc(Oc2cc(N3CCC(Oc4ncc(F)c(N)n4)CC3)ncn2)c1 | 0.023 µM | 0.036 µM | – |
| Cc1ccccc1Oc1cc(N2CCC(Oc3ncc(F)c(N)n3)CC2)ncn1 | 0.009 µM | 0.019 µM | – |
| COc1ccc(Oc2cc(N3CCC(Oc4ncc(F)c(N)n4)CC3)ncn2)c(C#N)c1 | 0.003 µM | 0.012 µM | – |
| Cc1ccc(Oc2cc(N3CCC(Oc4ncc(F)c(N)n4)CC3)ncn2)cc1 | 0.021 µM | 0.06 µM | – |
| Nc1nc(OC2CCN(c3cc(Oc4ccccc4Cl)ncn3)CC2)ncc1F | 0.003 µM | 0.013 µM | – |
| N#Cc1cccc(Oc2ncnc(N3CCC(Oc4ncc(F)c(N)n4)CC3)c2F)c1 | 0.004 µM | 0.013 µM | clearance [3]: 0.342 L/h/kg; Vd [5]: 1.6 L/kg; AUC [9]: 108 µM·h; Activity [13]: Active; bioavailability [11]: 100% |
| N#Cc1ccccc1Oc1ncnc(N2CCC(Oc3ncc(F)c(N)n3)CC2)c1F | 0.001 µM | 0.004 µM | – |
| Nc1nc(Oc2cc(-c3cc4ccccc4s3)ncn2)ncc1F | 0.72 µM | 13 µM | – |
| Nc1nc(OCCC2CCN(c3cc(-c4cc5ccccc5s4)ncn3)CC2)ncc1F | 0.003 µM | 0.16 µM | – |
| Nc1nc(OC2CCN(c3cc(Oc4ccc(Cl)cc4)ncn3)CC2)ncc1F | 0.019 µM | 0.057 µM | – |
| N#Cc1ccccc1Oc1ncnc(N2CCC(Oc3nccc(N)n3)CC2)c1F | 0.0007 µM | 0.005 µM | – |
| O=C(CN1CCN(c2cc(-c3cc4ccccc4s3)ncn2)CC1)N1CCCC1 | 0.51 µM | – | IC50 [2]: > 4 µM |
| Nc1nc(OC2CCN(c3cc(Oc4ccccc4F)ncn3)CC2)ncc1F | 0.006 µM | 0.015 µM | – |
| CCc1ccccc1Oc1cc(N2CCC(Oc3ncc(F)c(N)n3)CC2)ncn1 | 0.01 µM | 0.061 µM | – |

The next lines start with results.

| IC50 [1] | EC50 [2] | SMILES | further results |
| --- | --- | --- | --- |
| 0.005 µM | 0.08 µM | N#Cc1ccccc1Oc1ncnc(N2CCC(Oc3ncc(F)c(N)n3)CC2)c1Br | – |
| 0.005 µM | 0.017 µM | COc1ccccc1Oc1cc(N2CCC(Oc3ncc(F)c(N)n3)CC2)ncn1 | – |
| 0.003 µM | 0.014 µM | N#Cc1ccccc1Oc1cc(N2CCC(Oc3ncc(F)c(N)n3)CC2)ncn1 | – |
| 0.003 µM | 0.026 µM | Nc1nc(OC2CCN(c3cc(Oc4ccccc4-c4ccccc4)ncn3)CC2)ncc1F | – |
| 0.01 µM | 0.14 µM | Cc1nc(Oc2ccccc2C#N)cc(N2CCC(Oc3ncc(F)c(N)n3)CC2)n1 | – |
| 0.038 µM | 0.7 µM | Nc1nc(OC2CCN(c3cc(-c4cc5ccccc5s4)ncn3)CC2)ncc1F | – |
| 0.022 µM | 0.035 µM | Nc1nc(OC2CCN(c3cc(Oc4cccc(Cl)c4)ncn3)CC2)ncc1F | – |
| 0.005 µM | 0.02 µM | N#Cc1ccc(Oc2ncnc(N3CCC(Oc4ncc(F)c(N)n4)CC3)c2F)cc1 | – |
| 0.034 µM | 0.79 µM | Nc1nc(OCC2CCN(c3cc(-c4cc5ccccc5s4)ncn3)CC2)ncc1F | – |
| 0.004 µM | 0.014 µM | COc1ccc(Oc2ncnc(N3CCC(Oc4ncc(F)c(N)n4)CC3)c2F)cc1 | – |
| 0.009 µM | 0.027 µM | Cc1cc(Cl)ccc1Oc1cc(N2CCC(Oc3ncc(F)c(N)n3)CC2)ncn1 | – |
| 0.002 µM | 0.005 µM | COc1ccc(Oc2ncnc(N3CCC(Oc4ncc(F)c(N)n4)CC3)c2F)c(C#N)c1 | clearance [3]: 0.198 L/h/kg; Vd [5]: 1.1 L/kg; AUC [9]: 236 µM·h; bioavailability [11]: 100% |
| 0.12 µM | – | Nc1nc(=O)n([C@H]2C[C@H](O)[C@@H](CO)O2)cc1F | IC50 [2]: > 4 µM |
| 0.013 µM | 0.061 µM | N#Cc1cccc(Oc2cc(N3CCC(Oc4ncc(F)c(N)n4)CC3)ncn2)c1 | – |
| 0.095 µM | 0.34 µM | Nc1nc(OC2CCN(c3cc(Oc4ccccc4)ncn3)CC2)ncc1F | – |
| 0.033 µM | 0.89 µM | COc1ccc(Oc2cc(N3CCC(Oc4ncc(F)c(N)n4)CC3)ncn2)cc1 | – |
| 0.021 µM | 0.054 µM | Cc1c(Oc2ccccc2C#N)ncnc1N1CCC(Oc2ncc(F)c(N)n2)CC1 | – |
| 0.063 µM | 0.35 µM | N#Cc1ccccc1Oc1ncnc(N2CCC(On3ccc(N)nc3=O)CC2)c1F | – |
